The values that follow are results of earlier work, collected in PubChem BioAssay AID1259409 (Chemical Carcinogenesis Research Information System (CCRIS), 2018).

This series has as its system rodent chemically induced tumor inhibition, incidence and multiplicity. As to the kind of experiment: CCRIS tumor inhibitor studies. Particulars: Route [Inhibitor]: ORAL, Species: RAT, Promoter: NONE USED.

Take `O=P(O)(O)OC1C(OP(=O)(O)O)C(OP(=O)(O)O)C(OP(=O)(O)O)C(OP(=O)(O)O)C1OP(=O)(O)O` (stereo unspecified): the “tumour outcome (control, treated, inhibition, significance)” value is 5/15 (33%), 2/15 (13%), 61%, not significant (Carcinogen: 7,12-DIMETHYLBENZ[A]ANTHRACENE, 57-97-6, Dose [Inhibitor]: 0, 2% IN DIET FOR 35 WK BEGINNING POST CARCINOGEN DOSE (STUDY DURATION: 36 WK), Strain/Sex: SPRAGUE-DAWLEY/FEMALE, Target Tissue: Type of Lesion: EAR DUCT: TUMOR, Dose [Carcinogen]: 50 MG/KG BW IN CORN OIL ONCE); 14/15 (93%), 15/15 (100%), -8%, not significant (Carcinogen: 7,12-DIMETHYLBENZ[A]ANTHRACENE, 57-97-6, Dose [Inhibitor]: 0, 2% IN DIET FOR 35 WK BEGINNING POST CARCINOGEN DOSE (STUDY DURATION: 36 WK), Strain/Sex: SPRAGUE-DAWLEY/FEMALE, Target Tissue: Type of Lesion: MAMMARY GLAND: ADENOCARCINOMA OR FIBROADENOMA, Dose [Carcinogen]: 50 MG/KG BW IN CORN OIL ONCE); 7/10 (70%), 17/21 (81%), -16%, not calculated (Carcinogen: 7,12-DIMETHYLBENZ[A]ANTHRACENE, 57-97-6, Dose [Inhibitor]: 0, 15 MILLIMOLAR IN DRINKING WATER BEGINNING 1 WK PRIOR TO CARCINOGEN DOSE AND CONTINUING FOR 16 WK (STUDY DURATION: 16, Strain/Sex: SPRAGUE-DAWLEY/FEMALE, Target Tissue: Type of Lesion: MAMMARY GLAND: CARCINOMA, Dose [Carcinogen]: 20 MG IN 1 ML SESAME OIL ONCE); 37/40 (93%), 27/38 (71%), 24%, p<0.05 (Carcinogen: 7,12-DIMETHYLBENZ[A]ANTHRACENE, 57-97-6, Dose [Inhibitor]: 0, 15 MILLIMOLAR IN DRINKING WATER FOR 47 WK BEGINNING 2 WK PRIOR TO CARCINOGEN DOSE (STUDY DURATION: 47 WK), Strain/Sex: SPRAGUE-DAWLEY/FEMALE, Target Tissue: Type of Lesion: MAMMARY GLAND: TUMOR, Dose [Carcinogen]: 5 MG IN 1 ML CORN OIL ONCE); 65%, 30%, 54%, p<0.05 (Carcinogen: AZOXYMETHANE, 25843-45-2, Dose [Inhibitor]: 0, 2% IN A HIGH FAT LOW FIBER DIET FOR DURATION OF STUDY BEGINNING 3 WK PRIOR TO CARCINOGEN TREATMENT (STUDY DURATION: 3, Strain/Sex: SPRAGUE-DAWLEY/FEMALE, Target Tissue: Type of Lesion: COLON: TUMOR, Dose [Carcinogen]: 15 MG/KG BW 1/WK FOR 2 WK); 10/12 (83%), 3/12 (25%), 70%, p=0.0045 (Carcinogen: AZOXYMETHANE, 25843-45-2, Dose [Inhibitor]: 0, 2% IN DRINKING WATER BEGINNING 1 WK POST CARCINOGEN DOSE AND CONTINUING FOR DURATION OF STUDY (STUDY DURATION: 36 WK), Strain/Sex: F344/MALE, Target Tissue: Type of Lesion: COLON: CARCINOMA, Dose [Carcinogen]: 30 MG/KG ONCE AT 6 WK OF AGE). In addition, the “tumour outcome (control, treated, inhibition, significance)” value is on record as 100%, 100%, 0%, not significant (Carcinogen: AZOXYMETHANE, 25843-45-2, Dose [Inhibitor]: 1% IN DRINKING WATER BEGINNING 1 WK PRIOR TO FIRST CARCINOGEN DOSE (STUDY DURATION: 9 MO), Strain/Sex: F344/MALE, Target Tissue: Type of Lesion: LARGE INTESTINE: CARCINOMA, Dose [Carcinogen]: 8 MG/KG BW INJECTED IN HIND LEG 1/WK FOR 12 WK); 43%, 10%, 77%, not calculated (Carcinogen: AZOXYMETHANE, 25843-45-2, Dose [Inhibitor]: 2% IN DRINKING WATER BEGINNING 2 WK POST LAST CARCINOGEN DOSE (STUDY DURATION: 10 MO), Strain/Sex: F344/MALE, Target Tissue: Type of Lesion: COLON: TUMOR, Dose [Carcinogen]: 8 MG/KG BW INJECTED IN HIND LEG 1/WK FOR 4 WK); 70%, 30%, 57%, p<0.05 (Carcinogen: N-METHYL-N-NITROSOUREA, 684-93-5, AZOXYMETHANE, 25843-45-2, Carcinogen: N-METHYL-N-NITROSOUREA, 684-93-5, AZOXYMETHANE, 25843-45-2, Dose [Inhibitor]: 0, 2% IN A HIGH FAT LOW FIBER DIET FOR DURATION OF STUDY BEGINNING 2 WK PRIOR TO CARCINOGEN TREATMENT (STUDY DURATION: 3, Strain/Sex: SPRAGUE-DAWLEY/FEMALE, Target Tissue: Type of Lesion: COLON: TUMOR, Dose [Carcinogen]: 50 MG/KG BW MNU ONCE FOLLOWED BY 15 MG/KG BW AOM 1/WK FOR 2 WK); 100%, 50%, 50%, p<0.05 (Carcinogen: N-METHYL-N-NITROSOUREA, 684-93-5, AZOXYMETHANE, 25843-45-2, Carcinogen: N-METHYL-N-NITROSOUREA, 684-93-5, AZOXYMETHANE, 25843-45-2, Dose [Inhibitor]: 0, 2% IN A HIGH FAT LOW FIBER DIET FOR DURATION OF STUDY BEGINNING 2 WK PRIOR TO CARCINOGEN TREATMENT (STUDY DURATION: 3, Strain/Sex: SPRAGUE-DAWLEY/FEMALE, Target Tissue: Type of Lesion: MAMMARY GLAND: CARCINOMA, Dose [Carcinogen]: 50 MG/KG BW MNU ONCE FOLLOWED BY 15 MG/KG BW AOM 1/WK FOR 2 WK); 95%, 40%, 58%, p<0.05 (Carcinogen: N-METHYL-N-NITROSOUREA, 684-93-5, Dose [Inhibitor]: 0, 2% IN HIGH FAT LOW FIBER DIET FOR DURATION OF STUDY BEGINNING 2 WK PRIOR TO CARCINOGEN TREATMENT (STUDY DURATION: 32, Strain/Sex: SPRAGUE-DAWLEY/FEMALE, Target Tissue: Type of Lesion: MAMMARY GLAND: CARCINOMA, Dose [Carcinogen]: 50 MG/KG BW ONCE).
